Key:
CCRF-CEM = experiment: Antitumor activity against human CCRF-CEM cells; type: functional
Malme-3M = experiment: Antitumor activity against human MALME-3M cells; type: functional
IGROV-1 = experiment: Antitumor activity against human IGROV1 cells; type: functional
MOLT-4 = experiment: Antitumor activity against human MOLT4 cells; type: functional
KM12 = experiment: Antitumor activity against human KM12 cells; type: functional
OVCAR-5 = experiment: Antitumor activity against human OVCAR5 cells; type: functional
HCC 2998 = experiment: Antitumor activity against human HCC2998 cells; type: functional
CAKI-1 = experiment: Antitumor activity against human CAKI-1 cells; type: functional
SK-MEL-5 = experiment: Antitumor activity against human SK-MEL-5 cells; type: functional
SF-295 = experiment: Antitumor activity against human SF295 cells; type: functional
A549 = experiment: Antitumor activity against human A549 cells; type: functional
HCT-15 = experiment: Antitumor activity against human HCT15 cells; type: functional
[1] = Antitumor activity against human HL60 (TB) cells; type: functional, HL-60(TB); details: HL-60
SN12C = experiment: Antitumor activity against human SN12C cells; type: functional
OVCAR-8 = experiment: Antitumor activity against human OVCAR8 cells; type: functional
UACC-62 = experiment: Antitumor activity against human UACC62 cells; type: functional
BT-549 = experiment: Antitumor activity against human BT549 cells; type: functional
UACC-257 = experiment: Antitumor activity against human UACC257 cells; type: functional
NCI-H460 = experiment: Antitumor activity against human NCI-H460 cells; type: functional
SF-268 = experiment: Antitumor activity against human SF268 cells; type: functional
NCI-H23 = experiment: Antitumor activity against human NCI-H23 cells; type: functional
SNB-19 = experiment: Antitumor activity against human SNB19 cells; type: functional
RXF 393 = experiment: Antitumor activity against human RXF393 cells; type: functional
DU-145 = experiment: Antitumor activity against human DU145 cells; type: functional
SF-539 = experiment: Antitumor activity against human SF539 cells; type: functional
SK-OV-3 = experiment: Antitumor activity against human SK-OV-3 cells; type: functional
NCI-H522 = experiment: Antitumor activity against human NCI-H522 cells; type: functional
HOP-62 = experiment: Antitumor activity against human HOP62 cells; type: functional
ACHN = experiment: Antitumor activity against human ACHN cells; type: functional
A498 = experiment: Antitumor activity against human A498 cells; type: functional
SK-MEL-28 = experiment: Antitumor activity against human SK-MEL-28 cells; type: functional
UO-31 = experiment: Antitumor activity against human UO31 cells; type: functional
MCF7 = experiment: Antitumor activity against human MCF7 cells; type: functional
HOP-92 [2] = experiment: Antitumor activity against human HOP92 cells; type: functional
HT-29 = experiment: Antitumor activity against human HT29 cells; type: functional
MDA-MB-435 = experiment: Antitumor activity against human MDA-MB-435 cells; type: functional
K562 = experiment: Antitumor activity against human K562 cells; type: functional
SW-620 = experiment: Antitumor activity against human SW620 cells; type: functional
NCI/ADR-RES = experiment: Antitumor activity against human NCI/ADR-RES cells; type: functional
PC-3 = experiment: Antitumor activity against human PC3 cells; type: functional
TK-10 = experiment: Antitumor activity against human TK10 cells; type: functional
786-0 = experiment: Antitumor activity against human 786-0 cells; type: functional
RPMI-8226 = experiment: Antitumor activity against human RPMI8226 cells; type: functional
SNB-75 = experiment: Antitumor activity against human SNB75 cells; type: functional
OVCAR-3 = experiment: Antitumor activity against human OVCAR-3 cells; type: functional
LOX IMVI = experiment: Antitumor activity against human LOX IMVI cells; type: functional
U-251 = experiment: Antitumor activity against human U251 cells; type: functional
EKVX = experiment: Antitumor activity against human EKVX cells; type: functional
NCI-H226 = experiment: Antitumor activity against human NCI-H226 cells; type: functional
[3] = Antitumor activity against human HS 578T cells; type: functional
[4] = Antitumor activity against human […] cells; type: functional
[5] = Antitumor activity against human NCI-H322 cells; type: functional
OVCAR-4 = experiment: Antitumor activity against human OVCAR4 cells; type: functional
COLO 205 = experiment: Antitumor activity against human COLO205 cells; type: functional
HCT-116 = experiment: Antitumor activity against human HCT116 cells; type: functional
SR = experiment: Antitumor activity against human SR cells; type: functional
HOP-92 [6] = experiment: Growth inhibition of human HOP92 cells at 10 nM; type: functional
[7] = Growth inhibition of human HS 578T cells at 0.1 uM; type: functional

SMILES: CS(=O)(=O)c1ccc([C@H]2O[C@@H](CO)C[C@]2(O)c2ccc(S(C)(=O)=O)cc2)cc1 (relative stereo)
- GI50 (CCRF-CEM): > 100 µM
- GI50 (Malme-3M): > 100 µM
- GI50 (IGROV-1): > 100 µM
- GI50 (MOLT-4): > 100 µM
- GI50 (KM12): > 100 µM
- GI50 (OVCAR-5): > 100 µM
- GI50 (HCC 2998): > 100 µM
- GI50 (CAKI-1): > 100 µM
- GI50 (SK-MEL-5): > 100 µM
- GI50 (SF-295): > 100 µM
- GI50 (A549): > 100 µM
- GI50 (HCT-15): > 100 µM
- GI50 [1]: > 100 µM
- GI50 (SN12C): > 100 µM
- GI50 (OVCAR-8): > 100 µM
- GI50 (UACC-62): > 100 µM
- GI50 (BT-549): > 100 µM
- GI50 (UACC-257): > 100 µM
- GI50 (NCI-H460): > 100 µM
- GI50 (SF-268): > 100 µM
- GI50 (NCI-H23): > 100 µM
- GI50 (SNB-19): > 100 µM
- GI50 (RXF 393): > 100 µM
- GI50 (DU-145): > 100 µM
- GI50 (SF-539): > 100 µM
- GI50 (SK-OV-3): > 100 µM
- GI50 (NCI-H522): > 100 µM
- GI50 (HOP-62): > 100 µM
- GI50 (ACHN): > 100 µM
- GI50 (A498): > 100 µM
- GI50 (SK-MEL-28): > 100 µM
- GI50 (UO-31): > 100 µM
- GI50 (MCF7): > 100 µM
- GI50 (HOP-92 [2]): > 100 µM
- GI50 (HT-29): > 100 µM
- GI50 (MDA-MB-435): > 100 µM
- GI50 (K562): > 100 µM
- GI50 (SW-620): > 100 µM
- GI50 (NCI/ADR-RES): > 100 µM
- GI50 (PC-3): > 100 µM
- GI50 (TK-10): > 100 µM
- GI50 (786-0): > 100 µM
- GI50 (RPMI-8226): > 100 µM
- GI50 (SNB-75): > 100 µM
- GI50 (OVCAR-3): > 100 µM
- GI50 (LOX IMVI): > 100 µM
- GI50 (U-251): > 100 µM
- GI50 (EKVX): > 100 µM
- GI50 (NCI-H226): > 100 µM
- GI50 [3]: > 100 µM
- GI50 [4]: > 100 µM
- GI50 [5]: > 100 µM
- GI50 (OVCAR-4): > 100 µM
- GI50 (COLO 205): > 100 µM
- GI50 (HCT-116): > 100 µM
- GI50 (SR): > 100 µM

SMILES: OC[C@H]1C[C@](O)(c2ccc(F)cc2)[C@@H](c2ccc(F)cc2)O1 (relative stereo)
- GI50 (CCRF-CEM): > 100 µM
- GI50 (Malme-3M): > 100 µM
- GI50 (IGROV-1): 58.9 µM
- GI50 (MOLT-4): 100 µM
- inhibition at 0.01 µM (HOP-92 [6]): 13%
- GI50 (KM12): > 100 µM
- GI50 (OVCAR-5): > 100 µM
- GI50 (HCC 2998): > 100 µM
- GI50 (CAKI-1): > 100 µM
- GI50 (SK-MEL-5): > 100 µM
- GI50 (SF-295): > 100 µM
- GI50 (A549): > 100 µM
- GI50 (HCT-15): > 100 µM
- inhibition at 0.1 µM [7]: 29%
- GI50 [1]: > 100 µM
- GI50 (SN12C): > 100 µM
- GI50 (OVCAR-8): > 100 µM
- GI50 (UACC-62): > 100 µM
- GI50 (BT-549): > 100 µM
- GI50 (UACC-257): > 100 µM
- GI50 (NCI-H460): > 100 µM
- GI50 (SF-268): > 100 µM
- GI50 (NCI-H23): > 100 µM
- GI50 (SNB-19): > 100 µM
- GI50 (RXF 393): 52.5 µM
- GI50 (DU-145): > 100 µM
- GI50 (SF-539): > 100 µM
- GI50 (SK-OV-3): > 100 µM
- GI50 (NCI-H522): > 100 µM
- GI50 (HOP-62): > 100 µM
- GI50 (ACHN): > 100 µM
- GI50 (A498): > 100 µM
- GI50 (SK-MEL-28): > 100 µM
- GI50 (UO-31): > 100 µM
- GI50 (MCF7): > 100 µM
- GI50 (HOP-92 [2]): 66.1 µM
- GI50 (HT-29): > 100 µM
- GI50 (MDA-MB-435): > 100 µM
- GI50 (K562): > 100 µM
- GI50 (SW-620): > 100 µM
- GI50 (NCI/ADR-RES): > 100 µM
- GI50 (PC-3): > 100 µM
- GI50 (TK-10): > 100 µM
- GI50 (786-0): > 100 µM
- GI50 (RPMI-8226): > 100 µM
- GI50 (SNB-75): > 100 µM
- GI50 (OVCAR-3): > 100 µM
- GI50 (LOX IMVI): > 100 µM
- GI50 (U-251): > 100 µM
- GI50 (EKVX): > 100 µM
- GI50 (NCI-H226): > 100 µM
- GI50 [3]: 44.7 µM
- GI50 [4]: > 100 µM
- GI50 [5]: > 100 µM
- GI50 (OVCAR-4): > 100 µM
- GI50 (COLO 205): > 100 µM
- GI50 (HCT-116): 91.2 µM
- GI50 (SR): > 100 µM

From ChEMBL document CHEMBL1143055, “2,3,5-Substituted tetrahydrofurans as cancer chemopreventives. Part 1: synthesis and anti-cancer activities of 5-hydroxymethyl-2,3-diaryl-tetrahydro-furan-3-ols” (2007)
